{"source": "patent US20230109839A1", "about": "“THERAPEUTIC AGENT FOR TAUOPATHIES” (SUMITOMO PHARMA CO., LTD., priority 2020, published 2023)"}
{"target": "T1, human Nav1.1 (Homo sapiens, UniProt P35498)", "T1 construct": "host or cells: HEK293", "assay": "Amplification of Nav1.1-derived voltage-gated sodium current (Nav1.1 current), automated patch clamp (Test 1)", "type": "cell-based", "conditions": "Concentration for evaluation 1 μM; HEK293 cell line stably expressing human Nav1.1", "method_in_brief": "(§1)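 HEK293 cells stably expressing human Nav1.1, restricted to cells with >500 pA current, were recorded by automated voltage-clamp patch clamp with a ramp voltage stimulus. Compounds were applied in HEPES-buffered extracellular solution with 1% DMSO. Amplification (%) = 100×(peak or AUC after/before compound)−100.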", "units": {"Nav1.1 current amplification rate (%)": "%"}}
{"smiles": "CC1CC=C(c2ccc(=O)n(CC(=O)Nc3cnc4nccn4c3)n2)CC1", "note": "(stereo not drawn) [Example 337]", "Nav1.1 current amplification rate (%)": 52}
{"smiles": "CC1CC=C(c2ccc(=O)n(CC(=O)Nc3ccnc(C#N)c3)n2)CC1", "note": "(stereo not drawn) [Example 362]", "Nav1.1 current amplification rate (%)": 133}
{"smiles": "CN(c1cnc2cnn(CC(=O)Nc3cncc(Br)c3)c2n1)C1CCC1", "note": "[Example 692]", "Nav1.1 current amplification rate (%)": 33}
{"smiles": "CC1CC=C(c2ccc(=O)n(CC(=O)N3CCc4c3ccnc4-c3cccnc3)n2)CC1", "note": "(stereo not drawn) [Example 297]", "Nav1.1 current amplification rate (%)": 151}
{"smiles": "Cc1ccc(-c2ncc3cnn(CC(=O)Nc4ccn5ncnc5c4)c3n2)cc1", "note": "[Example 787]", "Nav1.1 current amplification rate (%)": 50}
{"smiles": "CC1=CCN(c2ncc3cnn(CC(=O)Nc4ccn5ncnc5c4)c3n2)CC1", "note": "[Example 784]", "Nav1.1 current amplification rate (%)": 45}
{"target": "T1, human Nav1.1", "assay": "Amplification of Nav1.1-derived voltage-gated sodium current (Nav1.1 current), automated patch clamp (Test 1)", "type": "cell-based", "conditions": "Concentration for evaluation 3 μM; HEK293 cell line stably expressing human Nav1.1", "method_in_brief": "as §1", "units": {"Nav1.1 current amplification rate (%)": "%"}}
{"smiles": "Cc1nc2cc(NC(=O)Cn3nc(C4=CCC(C)CC4)ccc3=O)ccn2c1C", "note": "(stereo not drawn) [Example 329]", "Nav1.1 current amplification rate (%)": 100}
{"target": "T1, human Nav1.1", "assay": "Amplification of Nav1.1-derived voltage-gated sodium current (Nav1.1 current), automated patch clamp (Test 1)", "type": "cell-based", "conditions": "Concentration for evaluation 10 μM; HEK293 cell line stably expressing human Nav1.1", "method_in_brief": "as §1", "units": {"Nav1.1 current amplification rate (%)": "%"}}
{"smiles": "N#Cc1ccc(NC(=O)Cn2nc(N3CCC4(CCCC4)C3)ccc2=O)cc1", "note": "[Example 24]", "Nav1.1 current amplification rate (%)": 286}
{"smiles": "CC1CCN(c2ccc(=O)n(CC(=O)Nc3cccc(C#N)c3)n2)CC1", "note": "[Example 55]", "Nav1.1 current amplification rate (%)": 111}
{"smiles": "O=C(Cn1nc(-c2cc(Cl)cs2)ccc1=O)Nc1ccc2ocnc2c1", "note": "[Example 454]", "Nav1.1 current amplification rate (%)": 157}
{"smiles": "CC1CCN(c2ccc(=O)n(CC(=O)Nc3cncnc3)n2)CC1", "note": "[Example 56]", "Nav1.1 current amplification rate (%)": 10}
{"smiles": "COc1cc(-c2cc(Cl)cs2)nn(CC(=O)N2CCc3c(N4CCOCC4)cccc32)c1=O", "note": "[Example 479]", "Nav1.1 current amplification rate (%)": 420}
{"smiles": "CN(c1cnc2cnn(CC(=O)Nc3cccnc3)c2n1)C1CC1", "note": "[Example 726]", "Nav1.1 current amplification rate (%)": 31}
{"smiles": "COc1cc(=O)n(CC(=O)N2CCN(c3cncc(F)c3)CC2)nc1C1=CCC(C)(C)CC1", "note": "[Example 490]", "Nav1.1 current amplification rate (%)": 469}
{"smiles": "CCC1(C)CCN(c2ccc(=O)n(CC(=O)Nc3ccc(C#N)cc3)n2)CC1", "note": "[Example 28]", "Nav1.1 current amplification rate (%)": 158}
{"smiles": "COc1cc(=O)n(CC(=O)Nc2ccc3ocnc3c2)nc1C1=CCC(C)(C)CC1", "note": "[Example 451]", "Nav1.1 current amplification rate (%)": 365}
{"smiles": "CC1CC=C(c2ccc(=O)n(CC(=O)N3CC=C(c4ccccc4)C3)n2)CC1", "note": "(stereo not drawn) [Example 388]", "Nav1.1 current amplification rate (%)": 37}
{"smiles": "CC1CCN(c2ccc(=O)n(CC(=O)Nc3ccc4c(c3)NC(=O)C4)n2)CC1", "note": "[Example 86]", "Nav1.1 current amplification rate (%)": 73}
{"smiles": "N#Cc1ccc(NC(=O)Cn2nc(N3CCC(C(F)(F)F)CC3)ccc2=O)cc1", "note": "[Example 10]", "Nav1.1 current amplification rate (%)": 124}
{"smiles": "CC1CC=C(c2ccc(=O)n(CC(=O)N3CCN(c4cncc(F)c4)CC3)n2)CC1", "note": "(stereo not drawn) [Example 263]", "Nav1.1 current amplification rate (%)": 342}
{"smiles": "CC1CC=C(c2ccc(=O)n(CC(=O)N3CCc4c3ccnc4Cl)n2)CC1", "note": "(stereo not drawn) [Example 247]", "Nav1.1 current amplification rate (%)": 53}
{"target": "T1, human Nav1.1", "assay": "Amplification of Nav1.1-derived voltage-gated sodium current (Nav1.1 current), automated patch clamp (Test 1)", "type": "cell-based", "conditions": "Concentration for evaluation 50 μM; HEK293 cell line stably expressing human Nav1.1", "method_in_brief": "as §1", "units": {"Nav1.1 current amplification rate (%)": "%"}}
{"smiles": "CC1CC=C(c2ccc(=O)n(CC(=O)Nc3ccnc(C4=CCN(C)C4)c3)n2)CC1", "note": "(stereo not drawn) [Example 371]", "Nav1.1 current amplification rate (%)": 64}
{"smiles": "Cc1ccc(F)c(Nc2ncc3cnn(CC(=O)Nc4ccn5ncnc5c4)c3n2)c1", "note": "[Example 776]", "Nav1.1 current amplification rate (%)": 17}
{"smiles": "Cc1cc2ncnn2cc1NC(=O)Cn1nc(C2=CCC(C)CC2)ccc1=O", "note": "(stereo not drawn) [Example 351]", "Nav1.1 current amplification rate (%)": 98}
{"target": "T1, human Nav1.1", "assay": "Amplification of Nav1.1-derived voltage-gated sodium current (Nav1.1 current), automated patch clamp (Test 1)", "type": "cell-based", "conditions": "HEK293, Concentration for evaluation 1 μM; HEK293 cell line stably expressing human Nav1.1; read-out: Nav1.1 current amplification rate (%)", "method_in_brief": "as §1", "units": {"activation at 1 µM": "%"}}
{"smiles": "CN(CC1(C)CC1)c1cnc2cnn(CC(=O)Nc3cnc4cccnc4c3)c2n1", "note": "[Example 760]", "activation at 1 µM": 104}
{"target": "T1, human Nav1.1", "assay": "Amplification of Nav1.1-derived voltage-gated sodium current (Nav1.1 current), automated patch clamp (Test 1)", "type": "cell-based", "conditions": "HEK293, concentration for evaluation 1 μM; HEK293 stably expressing human Nav1.1; read-out: Nav1.1 current amplification rate (%)", "method_in_brief": "as §1", "units": {"activation at 1 µM": "%"}}
{"smiles": "CN(CC1CCC1)c1ccc2cnn(CC(=O)Nc3cnc4cccnc4c3)c2n1", "note": "[Example 889]", "activation at 1 µM": 151}
{"target": "T1, human Nav1.1", "assay": "Amplification of Nav1.1-derived voltage-gated sodium current (Nav1.1 current), automated patch clamp (Test 1)", "type": "cell-based", "conditions": "concentration for evaluation 1 μM; HEK293 stably expressing human Nav1.1", "method_in_brief": "as §1", "units": {"Nav1.1 current amplification rate (%)": "%"}}
{"smiles": "O=C(Cn1ncc2cnc(N3CCC4(CC4)C(F)(F)C3)nc21)Nc1ccc2ncnn2c1", "note": "[Example 813]", "Nav1.1 current amplification rate (%)": 105}
{"smiles": "CC1CCN(c2ccc3cnn(CC(=O)Nc4ccc5ocnc5c4)c3n2)CC1", "note": "[Example 876]", "Nav1.1 current amplification rate (%)": 98}
{"smiles": "CN(c1ccc2cnn(CC(=O)Nc3ccc4ncnn4c3)c2n1)C1CCCC1", "note": "[Example 875]", "Nav1.1 current amplification rate (%)": 43}
{"target": "T1, human Nav1.1", "assay": "Amplification of Nav1.1-derived voltage-gated sodium current (Nav1.1 current), automated patch clamp (Test 1)", "type": "cell-based", "conditions": "concentration for evaluation 50 μM; HEK293 stably expressing human Nav1.1", "method_in_brief": "as §1", "units": {"Nav1.1 current amplification rate (%)": "%"}}
{"smiles": "CC1CCN(c2ccc3cnn(CC(=O)Nc4ccc(C(F)(F)F)nc4)c3n2)CC1", "note": "[Example 879]", "Nav1.1 current amplification rate (%)": 16}
